One molecule from US20160235686A1, “PROCESSES FOR PREPARING A SOLID POLYMER MATRIX CONTAINING A CORE MATERIAL BY PRESSURE CYCLING OF SUPERCRITICAL FLUID” (priority 2013, published 2016) can be followed below.

The data set in a line: In vitro release testing of degarelix from microparticles. The following applies: effect of 10 pressure cycles vs no pressure cycling, manitol/acetate buffer pH 4, 37° C. It counts as physicochemical. As to the method: In-vitro release of microparticles is conducted with a manitol/acetate buffer solution at pH 4. […] Each sample is analysed in triplicate.
A 25 mg sample is weighed out into a 25 mL volumetric flask. 1 mL of acetone is added to the volumetric flask to dissolve the microparticles. Once dissolved, the volumetric flask is topped up with water (approximately 24 mL), precipitating the polymer. A 1 mL sample of the supernatant is taken and centrifuged at 13000 rpm for 3 min. From this, a 200 μL sample is taken and analysed by HPLC. The loading determination method is carried out in triplicate and an average is taken.

Non-standard residues stand in square brackets, D forms with d. Residues, ends and D or L forms follow the SMILES beside them. *: point of attachment. dPhe(4-NHCONH2) = NC(=O)Nc1ccc(C[C@@H](N)C(=O)O)cc1; Dihydroorotyl(S) = O=C1C[C@@H](C(=O)*)NC(=O)N1; dPhe(4-Cl) = N[C@H](Cc1ccc(Cl)cc1)C(=O)O; Phe(4-NH2) = Nc1ccc(C[C@H](N)C(=O)O)cc1; d2Nal = N[C@H](Cc1ccc2ccccc2c1)C(=O)O; Lys(iPr) = CC(C)NCCCC[C@H](N)C(=O)O; d3Pal = N[C@H](Cc1cccnc1)C(=O)O

Consider `CC(=O)N[C@H](Cc1ccc2ccccc2c1)C(=O)N[C@H](Cc1ccc(Cl)cc1)C(=O)N[C@H](Cc1cccnc1)C(=O)N[C@@H](CO)C(=O)N[C@@H](Cc1ccc(NC(=O)[C@@H]2CC(=O)NC(=O)N2)cc1)C(=O)N[C@H](Cc1ccc(NC(N)=O)cc1)C(=O)N[C@@H](CC(C)C)C(=O)N[C@@H](CCCCNC(C)C)C(=O)N1CCC[C@H]1C(=O)N[C@H](C)C(N)=O` [degarelix] (Ac-[d2Nal][dPhe(4-Cl)][d3Pal]S[Phe(4-NH2)](Dihydroorotyl(S))[dPhe(4-NHCONH2)]L[Lys(iPr)]P[dA]-NH2), for which the “decrease in the initial burst release of degarelix from the formulation” value (FIG. 1, PLGA formulation prepared with processing aid (DMSO)) is listed as “approximately 15%” and the “decrease in the initial burst release of degarelix from the formulation” value (FIG. 2, PLGA formulation prepared without a processing aid) was “approximately 3%”.
